Data published in ChEMBL document CHEMBL3616377, “2-(3'-Indolyl)-N-arylthiazole-4-carboxamides: Synthesis and evaluation of antibacterial and anticancer activities” (Bioorg Med Chem Lett, 2015).
In brackets after ≈: the same amount, converted by molar mass.

What was measured:
Staphylococcus aureus [1] = assay: Antibacterial activity against Staphylococcus aureus MTCC 96 after 18 to 24 hrs by agar well diffusion method; type: functional
Bacillus subtilis [2] = assay: Antibacterial activity against Bacillus subtilis MTCC 121 after 18 to 24 hrs by agar well diffusion method; type: functional
Bacillus subtilis [3] = assay: Antibacterial activity against Bacillus subtilis MTCC 121 after 18 to 24 hrs by broth microdilution method; type: functional
Pseudomonas putida [4] = assay: Antibacterial activity against Pseudomonas putida MTCC 102 after 18 to 24 hrs by agar well diffusion method; type: functional
Pseudomonas putida [5] = assay: Antibacterial activity against Pseudomonas putida MTCC 102 after 18 to 24 hrs by broth microdilution method; type: functional
Staphylococcus aureus [6] = assay: Antibacterial activity against Staphylococcus aureus MTCC 96 after 18 to 24 hrs by broth microdilution method; type: functional
Escherichia coli [7] = assay: Antibacterial activity against Escherichia coli MTCC 1652 after 18 to 24 hrs by agar well diffusion method; type: functional
Escherichia coli [8] = assay: Antibacterial activity against Escherichia coli MTCC 1652 after 18 to 24 hrs by broth microdilution method; type: functional
[9] = Solubility of the compound in 0.05 to 0.1% DMSO; type: physicochemical
HeLa [10] = assay: Cytotoxicity against human HeLa cells after 48 hrs by MTT assay in absence of 10% FBS; type: functional, cell-based
PC-3 [11] = assay: Cytotoxicity against human PC3 cells after 48 hrs by MTT assay in absence of 10% FBS; type: functional, cell-based; details: PC-3, 48 h
MDA-MB-231 [12] = assay: Cytotoxicity against human MDA-MB-231 cells after 48 hrs by MTT assay in absence of 10% FBS; type: functional, cell-based; details: MDA-MB-231, 48 h
LNCaP [13] = assay: Cytotoxicity against human LNCAP cells after 48 hrs by MTT assay in absence of 10% FBS; type: functional, cell-based
HEK-293T [14] = assay: Cytotoxicity against human HEK293T cells after 48 hrs by MTT assay in presence of 10% FBS; type: cell-based
[15] = Cytotoxicity against human castration-resistant C4-2 cells after 48 hrs by MTT assay in presence of 10% FBS; type: functional, cell-based; details: LNCaP C4-2, 48 h
HeLa [16] = assay: Cytotoxicity against human HeLa cells after 48 hrs by MTT assay in presence of 10% FBS; type: functional, cell-based
PC-3 [17] = assay: Cytotoxicity against human PC3 cells after 48 hrs by MTT assay in presence of 10% FBS; type: functional, cell-based; details: PC-3, 48 h
MDA-MB-231 [18] = assay: Cytotoxicity against human MDA-MB-231 cells after 48 hrs by MTT assay in presence of 10% FBS; type: functional, cell-based; details: MDA-MB-231, 48 h
LNCaP [19] = assay: Cytotoxicity against human LNCAP cells after 48 hrs by MTT assay in presence of 10% FBS; type: functional, cell-based
HEK-293T [20] = assay: Cytotoxicity against human HEK293T cells after 48 hrs by MTT assay in absence of 10% FBS; type: cell-based
[21] = Cytotoxicity against human castration-resistant C4-2 cells after 48 hrs by MTT assay in absence of 10% FBS; type: functional, cell-based; details: LNCaP C4-2, 48 h

Compound	inhibition zone (IZ) (Staphylococcus aureus [1]) [mm]	inhibition zone (IZ) (Bacillus subtilis [2]) [mm]	MIC (Bacillus subtilis [3]) [µg/mL]	inhibition zone (IZ) (Pseudomonas putida [4]) [mm]	MIC (Pseudomonas putida [5]) [µg/mL]	MIC (Staphylococcus aureus [6]) [µg/mL]	inhibition zone (IZ) (Escherichia coli [7]) [mm]	MIC (Escherichia coli [8]) [µg/mL]	IC50 (HeLa [10]) [µM]	IC50 (PC-3 [11]) [µM]	IC50 (MDA-MB-231 [12]) [µM]	IC50 (LNCaP [13]) [µM]	IC50 (HEK-293T [14]) [µM]	IC50 [15] [µM]	IC50 (HeLa [16]) [µM]	IC50 (PC-3 [17]) [µM]	IC50 (MDA-MB-231 [18]) [µM]	IC50 (LNCaP [19]) [µM]	IC50 (HEK-293T [20]) [µM]	IC50 [21] [µM]	also measured
O=C(O)c1cn(C2CC2)c2cc(N3CCNCC3)c(F)cc2c1=O [CIPROFLOXACIN]	23	24	6.25 (≈ 18.9 µM)	21	12.5 (≈ 37.7 µM)																
O=C(Nc1ccc(F)cc1)c1csc(-c2c[nH]c3ccccc23)n1	12	10	100 (≈ 296 µM)	12	100 (≈ 296 µM)	100 (≈ 296 µM)	13	100 (≈ 296 µM)													solubility [9]: Insoluble
COc1ccc(NC(=O)c2csc(-c3c[nH]c4ccc(F)cc34)n2)cc1	12	13	100 (≈ 272 µM)	13	100 (≈ 272 µM)	100 (≈ 272 µM)	14	50 (≈ 136 µM)	3.41	> 100	49.4	66.4	> 100	> 100	33.5	> 100	> 100	75.4	12.1	> 100	
O=C(Nc1ccccc1)c1csc(-c2cn(Cc3ccc(Cl)cc3)c3ccccc23)n1	12	13	100 (≈ 225 µM)	15	50 (≈ 113 µM)	100 (≈ 225 µM)	15	50 (≈ 113 µM)	24.3	76.4	50.5	64.1	> 100	> 100	32.1	> 100	> 100	68.9	> 100	> 100	
COc1ccc(NC(=O)c2csc(-c3c[nH]c4ccccc34)n2)cc1	11	12	100 (≈ 286 µM)	12	100 (≈ 286 µM)	100 (≈ 286 µM)	14	50 (≈ 143 µM)													solubility [9]: Insoluble
Cc1ccc(NC(=O)c2csc(-c3c[nH]c4ccccc34)n2)cc1				12	100 (≈ 300 µM)		12	100 (≈ 300 µM)	> 100	> 100	> 100	> 100	> 100	> 100	> 100	> 100	> 100	> 100	> 100	> 100	
COc1ccc(NC(=O)c2csc(-c3cn(Cc4ccc(Cl)cc4)c4ccccc34)n2)cc1	14	15	50 (≈ 105 µM)	16	12.5 (≈ 26.4 µM)	100 (≈ 211 µM)	16	12.5 (≈ 26.4 µM)	> 100	> 100	84.9	> 100	> 100	> 100	90.9	> 100	> 100	> 100	> 100	> 100	
COc1ccc(NC(=O)c2csc(-c3c[nH]c4ccccc34)n2)cc1OC	14	14	50 (≈ 132 µM)	16	25 (≈ 65.9 µM)	50 (≈ 132 µM)	16	25 (≈ 65.9 µM)													solubility [9]: Insoluble
O=C(Nc1ccccc1)c1csc(-c2c[nH]c3ccccc23)n1	14			13	100 (≈ 313 µM)	50 (≈ 157 µM)	13	100 (≈ 313 µM)	> 100	> 100	79.4	> 100	> 100	> 100	> 100	> 100	> 100	> 100	41.1	> 100	
COc1cc(NC(=O)c2csc(-c3c[nH]c4ccc(F)cc34)n2)cc(OC)c1OC	12	10	100 (≈ 234 µM)	14	50 (≈ 117 µM)	100 (≈ 234 µM)	14	50 (≈ 117 µM)	> 100	89	> 100	> 100	66	> 100	48.9	> 100	> 100	88.5	> 100	> 100	
COc1cc(NC(=O)c2csc(-c3cn(Cc4ccc(Cl)cc4)c4ccccc34)n2)cc(OC)c1OC	13	12	100 (≈ 187 µM)	14	100 (≈ 187 µM)	100 (≈ 187 µM)	15	50 (≈ 93.6 µM)	91.4	> 100	> 100	97.7	> 100	> 100	> 100	> 100	> 100	> 100	58.7	> 100	
COc1cc(NC(=O)c2csc(-c3c[nH]c4ccccc34)n2)cc(OC)c1OC	12	14	50 (≈ 122 µM)	13	100 (≈ 244 µM)	100 (≈ 244 µM)	14	50 (≈ 122 µM)													solubility [9]: Insoluble
CN(C)c1ccc(NC(=O)c2csc(-c3c[nH]c4ccccc34)n2)cc1	13	14	50 (≈ 138 µM)	14	50 (≈ 138 µM)	100 (≈ 276 µM)	12	100 (≈ 276 µM)													solubility [9]: Insoluble
COc1cc(NC(=O)c2csc(-c3c[nH]c4ccc(Br)cc34)n2)cc(OC)c1OC	15	16	12.5 (≈ 25.6 µM)	16	12.5 (≈ 25.6 µM)	50 (≈ 102 µM)	14	50 (≈ 102 µM)	55.8	> 100	> 100	> 100	32.8	> 100	93	> 100	> 100	> 100	> 100	> 100	
O=C(NCc1ccccc1)c1csc(-c2c[nH]c3ccccc23)n1				13	100 (≈ 300 µM)		13	100 (≈ 300 µM)	9.51	> 100	> 100	> 100	74.5	> 100	41.4	> 100	> 100	> 100	> 100	> 100	
